The source of these data is publication PMC13210772, “Dual FLT3/MAPK14 Proteolysis-Targeting Chimera (PROTAC) Induces Potent Acute Myeloid Leukemia Cell Death” (Pharmaceuticals, 2026).

Data set [1] has as its system FLT3-ITD. As to the kind of experiment: KINOMEscan binding assay. On the procedure: Binding to FLT3-ITD was determined using the KINOMEscan^TM assay (Eurofins DiscoverX Corporation, San Diego, CA, USA)
Kinase-tagged T7 phage strains were prepared in an E. coli host derived from the BL21 strain. E. coli were grown to log-phase and infected with T7 phage and incubated with shaking at 32 °C until lysis. The lysates were centrifuged and filtered to remove cell debris. The remaining kinases were produced in HEK-293 cells and subsequently tagged with DNA for qPCR detection. […] The liganded beads were blocked with excess biotin and washed with blocking buffer (SeaBlock (Pierce), 1% BSA, 0.05% Tween 20, 1 mM DTT) to remove unbound ligand and to reduce non-specific binding. […] The compounds were then diluted directly into the assays such that the final concentration of DMSO was 0.9%. All reactions performed in polypropylene 384-well plate. Each was a final volume of 0.02 mL. […] The kinase concentration in the eluates was measured by qPCR.

Data set [2] is described as follows: Plasma stability. It is filed as in vitro ADME. As to conditions: for remaining at 0 h, 10 µM / remaining at 10 min, 10 µM / remaining at 0.5 h, 10 µM / remaining at 1 h, 10 µM / remaining at 2 h, 10 µM / remaining at 6 h, 10 µM: pooled human plasma, 37 °C; for remaining at 0 h, 10 µM: 0 min, read-out: 0 min—Compound Remaining %; for remaining at 10 min, 10 µM: read-out: 10 min—Compound Remaining %; for remaining at 0.5 h, 10 µM: 30 min, read-out: 30 min—Compound Remaining %; for remaining at 1 h, 10 µM: 60 min, read-out: 60 min—Compound Remaining %; for remaining at 2 h, 10 µM: 120 min, read-out: 120 min—Compound Remaining %; for remaining at 6 h, 10 µM: 360 min, read-out: 360 min—Compound Remaining %; for plasma stability: human plasma, 6 h. The method, then:
Another aspect we tested for selected PROTACs, and the reference inhibitor is the stability in human plasma. PROTACs MA190 and MA191 and their parent inhibitor MA68 (10 μM, final DMSO concentration 1%) were incubated with 100 μL pooled human plasma at 37 °C. The remaining amount of the incubated compound was tested for 6 h using a HPLC method. […] The further detailed biological characterization of MA191 and the successful in vivo testing can be found in a study submitted in parallel.
To determine plasma stability, 10 μM of the given compound was incubated with 100 μL human pooled plasma for 5, 10, 30, 60, 120 and 360 min at 37 °C. The reactions were stopped by adding 300 μL of acetonitrile with subsequent plasma proteins sedimentation. The samples were subjected to ultra-centrifugation (5 min, 10,000 RPM/g) using modified PES 30K low protein binding centrifugal filter. The filtrate was then analyzed using HPLC to determine the available concentration of the compounds and also to determine and quantify potential degradation products. As HPLC system a LiChrosorb® RP-18 (5 μm) 100–4.6 column from the manufacturer Merck, two LC-10AD pumps, a SPD-M10A VP PDA detector, and a SIL HT auto-sampler were used (all from the manufacturer Shimadzu, Kyoto, Japan). As mobile phase a gradient with […] composed of methanol/water/trifluoroacetic acid at a flow rate of 1 mL/min. UV absorbance was measured at 254 nm was used.

The test system of data set [3] is MOLM-13 cells. As to the kind of experiment: Apoptosis by flow cytometry (annexin-V/propidium iodine). It is filed as cell-based, human. As to conditions: 72 h. On the procedure: To further assess the biological relevance of these findings, we treated MV4-11 cells with the new PROTACs, included MA49 as control, and analyzed them for early (annexin-V positive) and late apoptosis (annexin-V and propidium iodine positive) by flow cytometry. Cells in late apoptosis are more severely damaged than cells in early apoptosis. […] After 72 h, all degraders evoked equal levels of apoptosis (Figure 4c). We additionally tested these degraders in MOLM-13 cells which carry FLT3-ITD and FLT3 from a patient with AML after initial myelodysplastic syndrome.
(§1) Figure 4 Biological and biochemical characterization of the FLT3 PROTACs. (a) MV4-11 cells were incubated for 24 h with 50 nM of the indicated compounds. Immunoblotting was performed for the indicated proteins and their phosphorylation (p-) or cleavage (cl.; indicated by arrows); β-actin was used to ensure equal sample loading. (b) MV4-11 cells were treated with the indicated agents and analyzed for early and late apoptosis by flow cytometry. (c) Same as in (b) but treatment for 72 h. (d) MOLM-13 cells were treated with the indicated agents and analyzed for early and late apoptosis by flow cytometry. […] Immunoblots show the expression of the indicated proteins and their phosphorylation (p-); β-actin was used to ensure equal sample loading. All immunoblots show data from at least two independent repetitions and flow cytometry analyses were conducted thrice independently; * […], ** p < 0.01, *** p < 0.001, **** p < 0.0001.
A general note: In flow cytometry, cells or beads pass a laser one at a time.

Data set [4] can be described thus: in vitro. As to conditions: CD-1, mouse, liver microsomes, pH 7.4. (Microsomes from liver hold many membrane-bound enzymes, among them those of drug oxidation.)
A short description of data set [5]: Metabolic stability in liver microsomes. As to conditions: for degraded after 2 h: mouse liver microsomes.
The subject of data set [6] is HEK293 cells. As to the kind of experiment: Cytotoxicity in HEK293 cells (Alamar Blue). As to conditions: 50 µM. On the technique in general: The colour change of resazurin is a common sign of viable cells or microbes.
The subject of data set [7] is FLT3-ITD. As to the kind of experiment: FLT3-ITD degradation, immunoblot in MOLM-13 cells. As to conditions: 50 nM, 24 h. Type of data set: cell-based, human.
Text: To verify that MA190 and MA191 trigger the depletion of FLT3-ITD and a breakdown of its downstream signaling in both MV4-11 and MOLM-13 cells, we used immunoblotting. Furthermore, we evaluated if the elimination of FLT3-ITD is inherent to the PROTAC activities of MA190 and MA191, or due to their kinase inhibitor moieties using MA68. […] The loss of FLT3-ITD was linked to a reduction of STAT5 and AKT, their phosphorylation, and the auto-phosphorylation of FLT3-ITD in both AML cell systems (Figure 4f,g).
as §1

The mark [8] stands for this setting: mouse (CD-1) liver microsomes, 25 μM.
[9] abbreviates: single runs A and B (Table S3), listed as MA49_B.
[10] abbreviates: single runs A and B (Table S3), listed as MA190_B.

One may read the share remaining as the share of the starting amount still present when the sample was taken. Take `Cc1ncsc1-c1ccc([C@H](C)NC(=O)[C@@H]2C[C@@H](O)CN2C(=O)[C@@H](NC(=O)CCOCCOCCOCCNC(=O)c2cc(Oc3ccc(NC(=O)Nc4cc(C(C)(C)C)on4)cc3)ccn2)C(C)(C)C)cc1` [MA49, reference compound]: the “% FLT3-ITD Binding at 1 µM” value in data set [1] was 91 ± 2%. Also, in data set [2], the amount remaining at 0 h, 10 µM came to 100%; the share remaining at 10 min, 10 µM was 94.9 ± 2.5%; the fraction remaining at 0.5 h, 10 µM was 96.1 ± 1.7%; the fraction remaining at 1 h, 10 µM turned out to be 95.2 ± 2.8%. In data set [2], the amount remaining at 2 h, 10 µM was found to be 93.2 ± 6.7% and the amount remaining at 6 h, 10 µM was 95.4 ± 4.3%. Besides, in data set [3], the “induction of late apoptosis” value is “most potent inducers of late apoptosis”. In data set [4], this molecule came in with an amount remaining at 0 h, 25 µM of 100%; a share remaining at 10 min, 25 µM of 66%; a fraction remaining at 20 min, 25 µM of 53%; a fraction remaining at 0.5 h, 25 µM of 37%. In data set [4], this molecule gave an amount remaining at 1 h, 25 µM of 29% and a share remaining at 2 h, 25 µM of 15%. Further, in data set [5] (setting [8]), the “20 min—Compound Remaining %” value worked out at 52.9 ± 2.1% and the “30 min—Compound Remaining %” value worked out at 37.2 ± 0.6%. Moreover, the “60 min—Compound Remaining %” value in data set [5] (mouse (CD-1) liver microsomes, 25 μM, 60 min) is 28.8 ± 2.9%. Besides, in data set [5], the “degraded after 2 h” value came out at 85.0%. Further, in data set [5] (single runs A and B (Table S3), 10 min, listed as MA49_B), the “10 min - compound remaining %” value was found to be 71%. Also, in data set [5] (setting [9]), the “20 min - compound remaining %” value was found to be 57%, the “30 min - compound remaining %” value is 38% and the “120 min - compound remaining %” value amounted to 10%. Also, in data set [5] (single runs A and B (Table S3), 60 min, listed as MA49_B), the “60 min - compound remaining %” value turned out to be 35%. Moreover, in data set [6], the “cytotoxic effects” value is on record as “showed cytotoxic effects”.

With `CNC(=O)c1cc(Oc2ccc(NC(=O)Nc3cc(C(C)(C)C)on3)cc2)ccn1` [MA68, reference compound], in data set [2], the “plasma stability” value is reported as “high plasma stability”; the fraction remaining at 0 h, 10 µM was 100%; the fraction remaining at 10 min, 10 µM came out at 92.9 ± 0.2%; the fraction remaining at 0.5 h, 10 µM stood at 94.2 ± 1.2%. In data set [2], the fraction remaining at 1 h, 10 µM is 91.9 ± 3.1%; the share remaining at 2 h, 10 µM stood at 93.6 ± 3.2%; the share remaining at 6 h, 10 µM came to 88.9 ± 3.2%. For the same molecule, the “FLT3-ITD degradation” value in data set [7] was “but not their underlying kinase inhibitor MA68, eliminate FLT3-ITD”. Also, the “cytotoxic effects” value in data set [6] is on record as “showed cytotoxic effects”.

Regarding `Cc1ncsc1-c1ccc([C@H](C)NC(=O)[C@@H]2C[C@@H](O)CN2C(=O)[C@@H](NC(=O)[C@H]2CC[C@H](C(=O)N3CCC(CCNC(=O)c4cc(Oc5ccc(NC(=O)Nc6cc(C(C)(C)C)on6)cc5)ccn4)CC3)CC2)C(C)(C)C)cc1` [MA190, 4-(4-(3-(5-(tert-Butyl)isoxazol-3-yl)ureido)phenoxy)-N-(2-(1-(trans-4-(((S)-1-((2S,4R)-4-hydroxy-2-(((S)-1-(4-(4-methylthiazol-5-yl)phenyl)ethyl)carbamoyl)pyrrolidin-1-yl)-3,3-dimethyl-1-oxobutan-2-yl)carbamoyl)cyclohexanecarbonyl)piperidin-4-yl)ethyl)picolinamide], the “% FLT3-ITD Binding at 1 µM” value in data set [1] is recorded as 71 ± 1%. Moreover, in data set [2], the “plasma stability” value is “high plasma stability”; the fraction remaining at 0 h, 10 µM turned out to be 100%; the amount remaining at 10 min, 10 µM turned out to be 94.1 ± 4.7%; the fraction remaining at 0.5 h, 10 µM came out at 89.5 ± 1.8%. Besides, in data set [2], the share remaining at 1 h, 10 µM worked out at 88.3 ± 0.2%; the amount remaining at 2 h, 10 µM is 86 ± 2%; the fraction remaining at 6 h, 10 µM turned out to be 86.2 ± 2.4%. For the same molecule, the “induction of late apoptosis” value in data set [3] is given as “most potent inducers of late apoptosis”. In data set [7], the “FLT3-ITD degradation” value is “eliminate FLT3-ITD”. In data set [4], this molecule had a fraction remaining at 0 h, 25 µM of 100%; a fraction remaining at 10 min, 25 µM of 92%; a share remaining at 20 min, 25 µM of 90%; an amount remaining at 0.5 h, 25 µM of 95%. In addition, in data set [4], the amount remaining at 1 h, 25 µM turned out to be 96% and the amount remaining at 2 h, 25 µM stood at 91%. Moreover, the “10 min—Compound Remaining %” value in data set [5] (mouse (CD-1) liver microsomes, 25 μM, 10 min) came to 91.5 ± 0.4%. In data set [5] (setting [8]), the “20 min—Compound Remaining %” value came to 88.5 ± 1.2% and the “30 min—Compound Remaining %” value was determined as 93.9 ± 0.6%. Further, the “degraded after 2 h” value in data set [5] was 8.0%. Moreover, in data set [5] (setting [10]), the “20 min - compound remaining %” value turned out to be 87%, the “30 min - compound remaining %” value is listed as 93% and the “120 min - compound remaining %” value is recorded as 93%. For the same molecule, the “cytotoxic effects” value in data set [6] is “no cytotoxic effects”.
